The values that follow come from patent US6127382A, “Amines substituted with a tetrahydroquinolinyl group an aryl or heteroaryl group and an alkyl group, having retinoid-like biological activity” (Allergan Sales, Inc., priority 1999, dated 2000).

SMILES strings stand for the structures.

Test [1] has as its system ornithine decarboxylase. The settings on record: literature; cited from earlier work.
Test [2] has as its target T1, RXRα (Homo sapiens, UniProt P19793).
T1 construct: expressed in transfected cells
T1 sequence (P19793 1-462): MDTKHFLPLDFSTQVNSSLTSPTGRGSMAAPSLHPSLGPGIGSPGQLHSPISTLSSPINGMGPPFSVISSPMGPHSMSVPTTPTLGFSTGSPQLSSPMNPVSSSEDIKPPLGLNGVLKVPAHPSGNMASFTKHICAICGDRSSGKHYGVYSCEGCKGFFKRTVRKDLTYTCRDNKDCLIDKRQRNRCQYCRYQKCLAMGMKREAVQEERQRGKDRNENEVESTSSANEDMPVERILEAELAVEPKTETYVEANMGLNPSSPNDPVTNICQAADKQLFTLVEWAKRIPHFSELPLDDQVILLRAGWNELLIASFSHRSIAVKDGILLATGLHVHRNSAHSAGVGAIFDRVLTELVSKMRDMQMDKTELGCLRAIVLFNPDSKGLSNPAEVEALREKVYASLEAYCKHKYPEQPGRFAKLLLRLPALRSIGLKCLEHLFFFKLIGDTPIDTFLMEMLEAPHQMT
Put plainly: ligand binding assay, RXRα. The note with it: read-out: RXR Bind Ki α. From the text:
(§1) Other assays described below, measure the ability of the compounds of the present invention to bind to, and/or activate various retinoid receptor subtypes. When in these assays a compound binds to a given receptor subtype and activates the transcription of a reporter gene through that subtype, then the compound is considered an agonist of that receptor subtype. […] In the below described assays the ability of the compounds to bind to RARα, RARβ, RARγ, RXRα, RXRβ and RXRγ receptors, and the ability or inability of the compounds to activate transcription of a reporter gene through these receptor subtypes can be tested. […] However, some of the compounds of the invention may behave as retinoid antagonists or partial antagonists and/or as inverse agonists. Because of the complex distribution of the different retinoid receptors in various organs of the mammalian body partial agonists and partial antagonists and compounds which have the characteristics of both may lend themselves to particularly useful therapeutic applications and may avoid serious side effects of conventional retinoid drugs.
(§2) A holoreceptor transactivation assay and a ligand binding assay which measure the antagonist/agonist like activity of the compounds of the invention, or their ability to bind to the several retinoid receptor subtypes, respectively, are described in published PCT Application No. WO WO93/11755 (particularly on pages 30-33 and 37-41) published on Jun. 24, 1993, the specification of which is also incorporated herein by reference. A detailed experimental procedure for holoreceptor transactivations has been described by Heyman et al. Cell 68, 397-406, (1992); Allegretto et al. J. Biol. Chem. 268, 26625-26633, and Mangelsdorf et al. The Retinoids: Biology, Chemistry and Medicine, pp 319-349, Raven Press Ltd., New York, which are expressly incorporated herein by reference. The results obtained in this assay are expressed in EC50 numbers, as they are also in the chimeric receptor transactivation assay. The results of ligand binding assay are expressed in Kd numbers. (See Cheng et al. Biochemical Pharmacology Vol. 22 pp 3099-3108, expressly incorporated herein by reference.)
(§3) Table 1 discloses the activity of certain exemplary compounds of the invention in the above-described chimeric receptor transactivation assay, holoreceptor transactivation assay and a ligand binding assays. Particularly, the transactivation data pertaining to RAR receptors were obtained in the chimeric assay, and the data pertaining to transactivation of RXR receptors were obtained in the holoreceptor transactivation assay.

Test [3] has as its target T2, RARγ (Homo sapiens, UniProt P13631).
T2 sequence (P13631 1-454): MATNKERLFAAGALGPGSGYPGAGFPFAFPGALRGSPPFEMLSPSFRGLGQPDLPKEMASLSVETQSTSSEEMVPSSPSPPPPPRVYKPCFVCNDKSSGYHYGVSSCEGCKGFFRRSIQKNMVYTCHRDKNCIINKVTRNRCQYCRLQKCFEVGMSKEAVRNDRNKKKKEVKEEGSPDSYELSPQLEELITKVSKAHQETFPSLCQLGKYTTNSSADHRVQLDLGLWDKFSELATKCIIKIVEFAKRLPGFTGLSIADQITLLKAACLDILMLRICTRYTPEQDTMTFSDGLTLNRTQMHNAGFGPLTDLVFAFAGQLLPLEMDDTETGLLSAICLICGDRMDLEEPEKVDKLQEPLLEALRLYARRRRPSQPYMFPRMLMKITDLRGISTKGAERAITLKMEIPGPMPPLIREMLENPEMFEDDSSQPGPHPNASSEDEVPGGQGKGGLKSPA
Put plainly: ligand binding assay, RARγ. The note with it: read-out: RAR Bind Ki γ.
Text: as §1, §2, §3

Test [4] has as its target T3, RARβ (Homo sapiens, UniProt P10826).
T3 sequence (P10826 1-448 isoform P10826-2): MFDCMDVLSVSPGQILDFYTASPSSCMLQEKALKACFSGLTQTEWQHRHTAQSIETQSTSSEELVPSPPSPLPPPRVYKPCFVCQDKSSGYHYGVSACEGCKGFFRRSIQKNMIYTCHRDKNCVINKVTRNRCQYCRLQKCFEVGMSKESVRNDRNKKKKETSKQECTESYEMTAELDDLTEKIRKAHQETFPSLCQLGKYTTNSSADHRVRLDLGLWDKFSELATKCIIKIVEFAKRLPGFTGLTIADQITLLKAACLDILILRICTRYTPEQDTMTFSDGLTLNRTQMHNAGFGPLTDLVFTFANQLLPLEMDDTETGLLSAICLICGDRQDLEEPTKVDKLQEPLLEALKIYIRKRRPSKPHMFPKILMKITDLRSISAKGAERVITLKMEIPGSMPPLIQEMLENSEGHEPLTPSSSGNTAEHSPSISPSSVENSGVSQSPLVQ
Put plainly: ligand binding assay, RARβ. The settings on record: read-out: RAR Bind Ki β.
Text: as §1, §2, §3

For test [5], the target named is T4, RARα (Homo sapiens, UniProt P10276).
T4 sequence (P10276 1-462): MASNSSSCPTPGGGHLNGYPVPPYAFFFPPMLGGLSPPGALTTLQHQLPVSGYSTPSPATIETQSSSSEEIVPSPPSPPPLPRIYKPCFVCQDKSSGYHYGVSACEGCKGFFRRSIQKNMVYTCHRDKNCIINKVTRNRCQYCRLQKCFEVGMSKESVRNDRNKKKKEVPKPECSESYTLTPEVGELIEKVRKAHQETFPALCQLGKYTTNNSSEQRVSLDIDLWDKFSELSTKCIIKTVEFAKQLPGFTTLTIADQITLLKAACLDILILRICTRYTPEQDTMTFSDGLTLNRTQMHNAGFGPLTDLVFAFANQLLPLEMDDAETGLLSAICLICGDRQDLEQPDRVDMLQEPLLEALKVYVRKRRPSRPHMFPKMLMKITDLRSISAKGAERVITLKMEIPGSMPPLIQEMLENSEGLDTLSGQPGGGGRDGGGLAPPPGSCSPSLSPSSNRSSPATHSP
Put plainly: ligand binding assay, RARα. The note with it: read-out: RAR Bind Ki α.
Text: as §1, §2, §3

Test [6] has as its target T5, RXRγ (Homo sapiens, UniProt P48443).
T5 sequence (P48443 1-463): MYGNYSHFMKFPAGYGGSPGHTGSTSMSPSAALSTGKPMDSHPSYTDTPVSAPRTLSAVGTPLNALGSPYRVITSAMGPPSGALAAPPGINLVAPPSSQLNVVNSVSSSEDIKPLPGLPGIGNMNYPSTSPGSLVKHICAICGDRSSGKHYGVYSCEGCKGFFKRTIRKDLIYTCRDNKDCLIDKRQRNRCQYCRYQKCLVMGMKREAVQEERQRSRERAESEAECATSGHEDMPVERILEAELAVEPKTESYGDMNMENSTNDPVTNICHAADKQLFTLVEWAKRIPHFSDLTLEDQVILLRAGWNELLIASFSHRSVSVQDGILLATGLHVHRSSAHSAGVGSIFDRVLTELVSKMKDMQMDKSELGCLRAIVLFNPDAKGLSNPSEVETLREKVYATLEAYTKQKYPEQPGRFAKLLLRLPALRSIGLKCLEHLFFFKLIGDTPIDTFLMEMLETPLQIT
Nature of the test: ligand binding assay, RXRγ. The settings on record: read-out: RXR Bind Ki γ.
Text: as §1, §2, §3

For the molecule `CC1=C(/C=C/C(C)=C/C=C/C(C)=C/C(=O)O)C(C)(C)CCC1` [Retinoic acid, retinoic acid], the “inhibition of induction of ODC activity by TPA” value in test [1] is listed as “inhibits this induction of ODC activity by TPA”.

What is called Ki is a dissociation constant, usually derived from enzyme kinetics or from competition with a known ligand. `CC(C)N1C(=O)CC(C)(C)c2cc(N(C)c3ccc(C(=O)O)cc3)ccc21` [Compound 5, 4-[(1-Isopropyl-4,4-dimethyl-2-oxo-1,2,3,4-tetrahydroquinolin-6-yl)methylamino]benzoic Acid]: the Ki in test [2] was 56 µM; in test [3], more than 30 µM; in test [4], more than 30 µM; in test [5] it was more than 30 µM; in test [6], more than 100 µM.
